Results: ChEMBL document CHEMBL1148710, “Alpha2-adrenoreceptors profile modulation. 3.1 (R)-(+)-m-nitrobiphenyline, a new efficient and alpha2C-subtype selective agonist” (J Med Chem, 2007)
Active and inactive are the calls of the source. The rule behind the calls is not given here.

Assays:
[1] = target: T1, Alpha-2A adrenergic receptor (Homo sapiens) (UniProt P08913); experiment: Intrinsic activity at human adrenergic alpha-2A receptor expressed in CHO cells assessed as forskolin-induced cAMP accumulation relative to (-)-noradrenaline; type: functional, cell-based
T1 sequence (whole entry): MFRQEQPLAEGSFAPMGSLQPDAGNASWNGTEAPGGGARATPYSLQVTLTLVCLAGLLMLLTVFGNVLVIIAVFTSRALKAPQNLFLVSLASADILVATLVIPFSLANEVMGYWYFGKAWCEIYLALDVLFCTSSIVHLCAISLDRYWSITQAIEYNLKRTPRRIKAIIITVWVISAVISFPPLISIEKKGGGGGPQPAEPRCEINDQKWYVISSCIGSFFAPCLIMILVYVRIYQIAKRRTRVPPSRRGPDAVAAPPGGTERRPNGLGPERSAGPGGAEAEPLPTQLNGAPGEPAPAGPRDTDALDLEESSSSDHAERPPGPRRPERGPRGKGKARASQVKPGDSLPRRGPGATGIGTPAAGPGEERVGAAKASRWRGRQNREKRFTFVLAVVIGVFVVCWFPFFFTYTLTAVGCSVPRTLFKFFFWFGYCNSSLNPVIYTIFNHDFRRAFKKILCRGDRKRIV

[2] = target: T2, Alpha-2B adrenergic receptor (Homo sapiens) (UniProt P18089); experiment: Intrinsic activity at human adrenergic alpha2B receptor expressed in CHO cells assessed as forskolin-induced cAMP accumulation relative to (-)- noradrenaline; type: functional, cell-based
T2 sequence (whole entry): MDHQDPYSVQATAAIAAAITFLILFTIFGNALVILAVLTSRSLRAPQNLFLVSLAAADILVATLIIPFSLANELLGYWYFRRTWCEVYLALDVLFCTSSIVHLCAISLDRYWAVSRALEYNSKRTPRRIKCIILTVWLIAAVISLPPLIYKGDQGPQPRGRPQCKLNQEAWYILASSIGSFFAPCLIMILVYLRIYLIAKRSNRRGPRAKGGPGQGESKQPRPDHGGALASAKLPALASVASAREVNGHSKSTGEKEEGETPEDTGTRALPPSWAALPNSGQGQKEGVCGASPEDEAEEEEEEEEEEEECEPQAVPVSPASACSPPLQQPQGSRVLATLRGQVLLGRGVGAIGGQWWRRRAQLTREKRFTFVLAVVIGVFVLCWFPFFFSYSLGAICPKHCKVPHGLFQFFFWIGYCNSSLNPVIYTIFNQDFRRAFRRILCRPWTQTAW

[3] = target: T3, Alpha-2C adrenergic receptor (Homo sapiens) (UniProt P18825); experiment: Intrinsic activity at human adrenergic Alpha-2C receptor expressed in CHO cells assessed as forskolin-induced cAMP accumulation relative to (-)- noradrenaline; type: functional, cell-based
T3 sequence (whole entry): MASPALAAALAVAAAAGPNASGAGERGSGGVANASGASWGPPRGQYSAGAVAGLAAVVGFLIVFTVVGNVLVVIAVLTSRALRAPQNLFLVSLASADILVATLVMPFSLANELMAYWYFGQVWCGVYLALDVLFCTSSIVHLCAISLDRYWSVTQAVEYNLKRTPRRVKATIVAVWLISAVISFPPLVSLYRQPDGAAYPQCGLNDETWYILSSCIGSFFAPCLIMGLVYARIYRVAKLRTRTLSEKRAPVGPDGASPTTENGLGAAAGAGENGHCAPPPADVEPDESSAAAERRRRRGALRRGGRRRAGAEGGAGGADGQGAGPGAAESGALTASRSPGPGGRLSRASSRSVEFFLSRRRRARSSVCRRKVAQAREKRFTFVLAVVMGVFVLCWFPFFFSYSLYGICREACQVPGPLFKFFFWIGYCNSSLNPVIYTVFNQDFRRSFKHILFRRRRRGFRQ

[4] = target: T4, Alpha-2C adrenergic receptor (Homo sapiens, UniProt P18825); experiment: Displacement of [3H]RX 821002 from human adrenergic alpha-2c receptor expressed in CHO cells in presence of GppNHp/Na; type: cell-based
T4 sequence (P18825 whole entry): T3 sequence (whole entry)

[5] = target: T3, Alpha-2C adrenergic receptor (Homo sapiens); details: CHO
Description: (§2) Displacement of [3H]RX 821002 from human adrenergic Alpha-2C receptor expressed in CHO cells

[6] = target: T5, Alpha-2A adrenergic receptor (Homo sapiens, UniProt P08913); experiment: Displacement of [3H]RX 821002 from human adrenergic alpha2A receptor expressed in CHO cells; type: cell-based
T5 sequence (P08913 whole entry): T1 sequence (whole entry)

[7] = target: T6, Alpha-2B adrenergic receptor (Homo sapiens, UniProt P18089); experiment: Displacement of [3H]RX 821002 from human adrenergic alpha-2B receptor expressed in CHO cells; type: cell-based
T6 sequence (P18089 whole entry): T2 sequence (whole entry)

[8] = target: T4, Alpha-2C adrenergic receptor; experiment: Agonistic potency at human adrenergic Alpha-2C receptor expressed in CHO cells assessed as forskolin-induced cAMP accumulation; type: functional, cell-based
[9] = target: T2, Alpha-2B adrenergic receptor (Homo sapiens); experiment: Antagonistic potency at human adrenergic alpha-2B receptor expressed in CHO cells assessed as forskolin-induced cAMP accumulation; type: functional, cell-based
[10] = target: T1, Alpha-2A adrenergic receptor (Homo sapiens); details: CHO
Description: Antagonistic potency at human adrenergic alpha2A receptor expressed in CHO cells assessed as forskolin-induced cAMP accumulation

[11] = target: T4, Alpha-2C adrenergic receptor; experiment: biochemical
Description: as §2

[12] = target: T2, Alpha-2B adrenergic receptor (Homo sapiens); experiment: (§1) Agonistic potency at human adrenergic alpha-2B receptor expressed in CHO cells assessed as forskolin-induced cAMP accumulation; type: functional, cell-based
[13] = target: T5, Alpha-2A adrenergic receptor; experiment: Agonistic potency at human adrenergic alpha-2A receptor expressed in CHO cells assessed as forskolin-induced cAMP accumulation
[14] = target: T6, Alpha-2B adrenergic receptor; experiment: as §1; type: functional, cell-based

SMILES	Intrinsic activity [1]	Intrinsic activity [2]	Intrinsic activity [3]	Ki [4]	pKiH [5]	pKiL [5]	Ki [6]	Ki [7]	EC50 ([8]; read-out: Log EC50 (converted))	pKb [9]	pKb [10]	Ki [11]	EC50 ([8]; read-out: EC50)	Activity [12]	EC50 [13]	EC50 [14]
CC(Oc1ccccc1-c1cccc(O)c1)C1=NCCN1 (racemic)	< 0.3	0.5	1.15													
Cc1cccc(C(C)c2c[nH]cn2)c1C (single isomer, unassigned) [DEXMEDETOMIDINE]				30.9 nM	10	8.26										
C[C@H](Oc1ccccc1-c1cccc([N+](=O)[O-])c1)C1=NCCN1			0.45				72.4 nM	1580 nM	741 nM	5.93	7.35	537 nM				
C[C@@H](Oc1ccccc1-c1cccc([N+](=O)[O-])c1)C1=NCCN1			0.8	363 nM	8.21	6.42	81.3 nM	741 nM	10 nM	6.07	7.11	257 nM	38 nM			
CC(Oc1ccccc1-c1ccccc1)C1=NCCN1 (racemic)	0.7	0.5	0.8													
CC(Oc1ccccc1-c1cccc(F)c1)C1=NCCN1 (racemic)	0.58	< 0.3	1.15											inactive		
CC(Oc1ccccc1-c1cccc([N+](=O)[O-])c1)C1=NCCN1 (racemic)	< 0.3	< 0.3	0.6											inactive		
CC(Oc1ccccc1-c1cccnc1)C1=NCCN1 (racemic)	0.5	0.5	1													
C[C@H](Oc1ccccc1-c1ccccc1)C1=NCCN1	0.8	0.65	0.9				91.2 nM	589 nM	18.6 nM			302 nM			74.1 nM	692 nM
C[C@@H](Oc1ccccc1-c1ccccc1)C1=NCCN1	0.4	0.4	0.7				186 nM	1260 nM	112 nM			977 nM			28800 nM	100000 nM
